In patent US20050209278A1, “Piperidinyl- and piperazinyl-sulfonylmethyl hydroxamic acids and their use as protease inhibitors” (priority 2002, published 2005):
Counter-ions that a name gives are not always drawn. Like-named read-outs stand apart in the source and are kept apart here.

Legend:
MMP-13 = target: T1, MMP-13 (Homo sapiens, UniProt P45452); test: In vitro MMP inhibition, Ki determination (fluorogenic substrate II); assay type: biochemical; conditions: human recombinant enzyme, 4 μM substrate II, room temperature, 1 hr
T1 construct: made in house; host or cells: baculovirus / insect cells
Procedure: (§1) Several hydroxamic acids and salts thereof were analyzed in in vitro assays to determine their ability to inhibit the MMP cleavage of peptide substrates. […] and IC50 constants were calculated from the assayed hydroxamic acid-MMP interactions.
(§2) Human recombinant MMP-1, MMP-2, MMP-9, MMP-13, and MMP-14 were used in this assay. All enzymes were prepared in Assignee's laboratories following usual laboratory procedures. Protocols for the preparation and use of these enzymes are available in the scientific literature. See, e.g., Enzyme Nomenclature (Academic Press, San Diego, Calif., 1992) (and the citations therein). See also, Freije et al., “Molecular cloning and expression of collagenase-3, a novel human matrix metalloproteinase produced by breast carcinomas,” J Biol. Chem., 269(24), 16766-16773 (1994).
The MMP-13 was obtained as a proenzyme from a full-length cDNA clone using baculovirus, as described by V. A. Luckow, “Insect Cell Expression Technology,” Protein Engineering: Principles and Practice, pp. 183-218 (edited by J. L. Cleland et al., Wiley-Liss, Inc., 1996). The expressed proenzyme was first purified over a heparin agarose column, and then over a chelating zinc chloride column. The proenzyme was then activated by APMA for use in the assay. […] See also, O'Reilly et al, Baculovirus Expression Vectors: A Laboratory Manual (W.H. Freeman and Co., New York, N.Y., 1992). See also, King et al., The Baculovirus Expression System: A Laboratory Guide (Chapman & Hall, London, England, 1992).
(§3) All MMPs were activated using 4-aminophenylmercuric acetate (“APMA”, Sigma Chemical, St. Louis, Mo.) or trypsin. MMP-9 also was activated using human recombinant MMP-3 (purified in Assignee's laboratory following standard cloning and purification techniques).
(§4) Two fluorogenic, methoxycoumarin-containing polypeptide substrates were used in the MMP inhibition assays: [drawing 427] Here, “Dpa” is 3-(2,4-dinitrophenyl)-L-2,3-diaminopropionyl group, and “MCA” is 7-methoxycoumarin-4-yl acetyl. Substrate (I) was purchased from Baychem (Redwood City, Calif.), and substrate II was prepared Assignee's laboratory. Substrate I was used in the IC50 determination assays, while substrate II was used in the Ki determination assays. In the absence of MMP inhibitory activity, either substrate is cleaved at the Gly-Leu peptide bond. This cleavage separates the highly fluorogenic peptide from the 2,4-dinitrophenyl quencher, thus resulting in increase of fluorescent intensity.
(§5) The stock solutions of the assayed hydroxamic acids (or salts thereof) were prepared in 1% dimethyl sulfoxide (DMSO). These stock solutions were diluted in Buffer A (100 mM Tris-HCl, 100 mM NaCl, 10 mM CaCl2, 0.05% polyoxyethylene 23 lauryl ether, pH 7.5) to obtain solutions with different hydroxamic acid concentrations, i.e., assay solutions with different concentrations of the assayed MMP inhibitory compound. The experiment controls contained the same amount of Buffer A/DMSO as the assayed sample, but contained no hydroxamic acid (or salt thereof).
(§6) The assays from which the Ki determinations were made were performed as follows. The assayed hydroxamic acid samples were incubated in separate wells of untreated white polystyrene plates (Nunc Nalgene International, Rochester, N.Y.), and analyzed on a Tecan SpectraFlour Plus plate reader. The excitation wavelength was 330 nm, and the emission wavelength—420 nm. All samples (assayed hydroxamic acids and controls) were incubated in separate plate wells at room temperature for 1 hr in the presence of 4 μM of MMP substrate (II). In the absence of MMP inhibitory activity, substrate II was cleaved at the Gly-Leu bond resulting in an increase of relative fluorescence. Inhibition was observed as a reduced rate of this increase in relative fluorescence. The various hydroxamic acids were analyzed using a single low enzyme concentration with a single substrate concentration fixed at or below the Km.

MMP-2 = target: T2, MMP-2 (Homo sapiens, UniProt P08253); test: as above; assay type: biochemical; conditions: read-out: MMP-2 Ki
T2 construct: made in house; host or cells: MMP-2-transfected p2AHT2 cells
T2 sequence (P08253 110-660): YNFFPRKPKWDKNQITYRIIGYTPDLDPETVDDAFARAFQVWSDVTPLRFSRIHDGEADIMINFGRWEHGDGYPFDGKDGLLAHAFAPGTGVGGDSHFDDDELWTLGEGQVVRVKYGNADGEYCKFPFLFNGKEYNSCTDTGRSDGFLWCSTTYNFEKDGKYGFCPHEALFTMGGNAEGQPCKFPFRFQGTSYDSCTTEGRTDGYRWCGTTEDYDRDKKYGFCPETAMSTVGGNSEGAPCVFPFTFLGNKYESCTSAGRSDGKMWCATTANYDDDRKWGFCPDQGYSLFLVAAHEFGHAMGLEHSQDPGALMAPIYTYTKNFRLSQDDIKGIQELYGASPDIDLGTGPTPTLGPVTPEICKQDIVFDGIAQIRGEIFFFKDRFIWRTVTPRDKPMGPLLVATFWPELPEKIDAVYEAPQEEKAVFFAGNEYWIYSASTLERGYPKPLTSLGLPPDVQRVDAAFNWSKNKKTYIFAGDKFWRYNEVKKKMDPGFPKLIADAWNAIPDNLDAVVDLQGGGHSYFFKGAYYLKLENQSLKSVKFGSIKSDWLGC
Procedure: as §1, §2
The MMP-2 proenzyme was purified by gelatin Sepharose chromatography from MMP-2-transfected p2AHT2 cells provided by Dr. Gregory Goldberg of Washington University (St. Louis, Mo.).
as §3, §4, §5
as §6, with “Km. This protocol is a modification of method by Knight et al., FEBS Lett., 296(3), 263-266 (1992). Apparent inhibitory constants were determined by non-linear regression of reaction velocity as a function of inhibitor and enzyme concentration using Morrison's equation, as described by Kuzmic, Anal. Biochem. 286, 45-50 (2000). […] Since the substrate concentration was chosen to be at or below the Km, the apparent Ki's from this analysis were reported as Ki's without correction for the influence of substrate.” for “Km.”

[1] = human recombinant enzyme, 4 μM substrate II, room temperature, 1 hr

Ki (MMP-13; MMP-13 Ki) [nM] | Ki (MMP-2; [1]) [nM] | Ki (MMP-13; read-out: MMP-13 Ki) [nM] | Ki (MMP-2; value not in parenthesis) [nM] | Compound
– | 0.62 | 0.522 | – | CCCCc1ccc(N2CCN(S(=O)(=O)C3(C(=O)NO)CCN(CCOC)CC3)CC2)cc1 [Example 5, 4-{[4-(4-butylphenyl)piperazin-1-yl]sulfonyl}-N-hydroxy-1-(2-methoxyethyl)piperidine-4-carboxamide Dihydrochloride]
– | 0.501 | 0.27 | – | CCCCCc1ccc(N2CCN(S(=O)(=O)C3(C(=O)NO)CCN(CCOC)CC3)CC2)cc1 [Example 6, N-Hydroxy-1-(2-methoxyethyl)-4-{[4-(4-pentylphenyl)piperazin-1-yl]sulfonyl}piperidine-4-carboxamide Dihydrochloride]
– | 1.98 | 0.11 | – | COc1ccc(-c2cnc(N3CCN(S(=O)(=O)C4(C(=O)NO)CCOCC4)CC3)nc2)cc1 [Example 8, N-hydroxy-4-({4-[5-(4-methoxyphenyl)pyrimidin-2-yl]piperazin-1-yl}sulfonyl)tetrahydro-2H-pyran-4-carboxamide Hydrochloride]
– | 0.52 | 3.88 | – | O=C(NO)C1(S(=O)(=O)N2CCN(c3ccc(OCC4CC4)c(F)c3)CC2)CCN(C2CC2)CC1 [Example 10, 1-cyclopropyl-4-[[4-[4-(cyclopropylmethoxy)-3-fluorophenyl]-1-piperazinyl]sulfonyl]-N-hydroxy-4-piperidinecarboxamide, dihydrochloride]
– | 0.18 | 0.77 | – | O=C(NO)C1(S(=O)(=O)N2CCN(c3ccc(-c4ccccc4)c(F)c3)CC2)CCOCC1 [Example 12, 4-{[4-(2-fluoro-1,1′-biphenyl-4-yl)piperazin-1-yl]sulfonyl}-N-hydroxytetrahydro-2H-pyran-4-carboxamide Hydrochloride]
– | 0.549 | 0.61 | – | CCCCCc1ccc(N2CCN(S(=O)(=O)C3(C(=O)NO)CCN(CCOC)CC3)CC2)cc1F [Example 13, 4-{[4-(3-fluoro-4-pentylphenyl)piperazin-1-yl]sulfonyl}-N-hydroxy-1-(2-methoxyethyl)piperidine-4-carboxamide Dihydrochloride]
– | 3.84 | 2.67 | – | COCCOc1ccc(N2CCN(S(=O)(=O)C3(C(=O)NO)CCOCC3)CC2)cc1 [Example 14, N-hydroxy-4-({4-[4-(2-methoxyethoxy)phenyl]piperazin-1-yl}sulfonyl)tetrahydro-2H-pyran-4-carboxamide Hydrochloride]
– | 0.89 | 0.23 | – | CCCCCc1ccc(C2CCN(S(=O)(=O)C3(C(=O)NO)CCN(CCOC)CC3)CC2)cc1 [Example 15, N-hydroxy-1-(2-methoxyethyl)-4-{[4-(4-pentylpheyl)piperidin-1-yl]sulfonyl}piperidine-4-carboxamide Hydrochloride]
– | – | – | 2.58 | O=C(NO)C1(S(=O)(=O)N2CCN(c3ccc(OCCCC(F)(F)F)cc3F)CC2)CCOCC1 [Example 117]
– | – | – | 5.23 | CCCCOc1ccc(N2CCN(S(=O)(=O)C3(C(=O)NO)CCN(c4nccc(C(F)(F)F)n4)CC3)CC2)cc1 [Example 130]

Second part, the compound before the results:

Compound | Ki (MMP-13; MMP-13 Ki) [nM] | Ki (MMP-2; [1]) [nM] | Ki (MMP-13; read-out: MMP-13 Ki) [nM] | Ki (MMP-2; value not in parenthesis) [nM]
CCCCc1cnc(N2CCN(S(=O)(=O)C3(C(=O)NO)CCOCC3)CC2)cn1 [Example 1, 4-{[4-(5-butylpyrazin-2-yl)piperazin-1-yl]sulfonyl}-N-hydroxytetrahydro-2H-pyran-4-carboxamide Dihydrochloride] | 1.82 | 1.52 | – | –
O=C(NO)C1(S(=O)(=O)N2CCN(c3ccc(OCC(F)(F)F)cc3)CC2)CCOCC1 [Example 2, N-hydroxy-4-({4-[4-(2,2,2-trifluoroethoxy)phenyl]piperazin-1-yl}sulfonyl)tetrahydro-2H-pyran-4-carboxamide Hydrochloride] | – | 0.74 | 0.77 | –
CCOc1ccc(N2CCN(S(=O)(=O)C3(C(=O)NO)CCOCC3)CC2)cc1 [Example 3, 4-{[4-(4-ethoxyphenyl)piperazinyl]sulfonyl}perhydro-2H-pyran-4-carbohydroxamic Acid] | – | 0.59 | 1.46 | –
O=C(NO)C1(S(=O)(=O)N2CCN(c3ccc(OC(F)(F)C(F)F)cc3)CC2)CCOCC1 [Example 4, 4-({4-[4-(1,1,2,2-tetrafluoroethoxy)phenyl]piperazinyl}sulfonyl)perhydro-2H-pyran-4-carbohydroxamic Acid] | – | 0.104 | 0.216 | –
O=C(NO)C1(S(=O)(=O)N2CCN(c3ccc(OCCCC(F)(F)F)cc3)CC2)CCOCC1 [Example 7, N-hydroxy-4-({4-[4-(4,4,4-trifluorobutoxy)phenyl]piperazin-1-yl}sulfonyl)tetrahydro-2H-pyran-4-carboxamide Hydrochloride] | – | 0.497 | 0.17 | –
COCCN1CCC(C(=O)NO)(S(=O)(=O)N2CCN(c3ccc(OCCCC(F)(F)F)cc3)CC2)CC1 [Example 9, N-hydroxy-1-(2-methoxyethyl)-4-({4-[4-(4,4,4-trifluorobutoxy)phenyl]piperazin-1-yl}sulfonyl)piperidine-4-carboxamide Dihydrochloride] | – | 0.223 | 0.05 | –
CCCCOc1ccc(N2CCN(S(=O)(=O)C3(C(=O)NO)CCN(CCOC)CC3)CC2)cc1F [Example 11, 4-[[4-(4-butoxy-3-fluorophenyl)-1-piperazinyl]sulfonyl]-N-hydroxy-1-(2-methoxyethyl)-4-piperidinecarboxamide, Dihydrochloride] | – | 0.71 | 0.67 | –
